According to patent US6958352B2, “Compounds for inhibiting insulin secretion and methods related thereto” (SmithKline Beecham Corporation, priority 2002, dated 2005):
Where two headings read alike, the source gives them in different places.

How the values were obtained:
[1] = system: Pancreatic islets of Langerhans; experiment: Glucose-stimulated insulin secretion (GSIS) by isolated pancreatic islets, insulin ELISA; assay type: cell-based, rat; settings: concentration of 1 μM
Experimental: Pancreatic islets of Langerhans were isolated from adult male Sprague-Dawley rats using a standard collagenase infusion and digestion procedure as described in Example 16. Islets were cultured at 37° C. for 1-2 days in CMRL-1066 medium supplemented with 5.5 mM glucose, 10% fetal bovine serum, 100 U/ml penicillin and 100 μg/ml streptomycin, in a humidified atmosphere containing 5% CO2. Islets were manually picked and washed in Krebs Ringer Bicarbonate buffer (KRB: 134 mM NaCl, 4.7 mM KCl, 1.2 mM KH2PO4, 1.2 mM MgSO4, 1 mM CaCl2, 10 mM NaHCO3, pH 7.4) in preparation for measurement of glucose-stimulated insulin secretion (GSIS). […] Cell-conditioned media samples were then collected by centrifugation and their insulin content was determined using enzyme-linked immunosorbent assay (ELISA) kits (CrystalChem or ALPCO rat insulin ELISA) according to the kit supplier's instructions. Following treatment with a preferred compound, the concentration of insulin detected in the islet-conditioned medium was at least 1.5 times the insulin concentration detected in the medium conditioned by islets that were exposed to 8 mM glucose.
At a concentration of 1 μM, CGP37157 stimulated islet GSIS by 222 (±48) % relative to GSIS detected with 8 mM glucose. […]

[2] = system: INS-1 rat insulinoma cells; experiment: Insulin secretion by INS-1 cells, insulin radioimmunoassay; assay type: cell-based; settings: 8 mM glucose vs basal; FIG. 1
Experimental: INS-1 rat insulinoma cells were provided by Prof. Claes Wollheim, University Medical Centre, Geneva, Switzerland, and cultured at 37° C. in a humidified 5% CO2 environment in RPMI cell culture media (Gibco BRL, Gaithersburg, Md.) supplemented with 10% fetal bovine serum (Irvine Scientific, Irvine, Calif.), 2 mM L-glutamine, 100 U/ml penicillin, 100 μg/ml streptomycin, 10 mM HEPES, 1 mM sodium pyruvate and 50 μM β-mercaptoethanol (all reagents Sigma, St. Louis, Mo., unless otherwise noted).
INS-1 cells were seeded into 24-well plates containing RPMI media supplemented as described at 0.5×10^6 cells/well and cultured at 37° C., 5% CO2 for 2 days. Cells at or near confluence (0.7×10^6 cells/well) were rinsed with glucose-free KRH buffer (134 mM NaCl, 4.7 mM KCl, 1.2 mM KH2PO4, 1.2 mM MgSO4, 1.0 mM CaCl2, 10 mM HEPES-pH 7.4, 25 mM NaHCO3, 0.5% BSA), then incubated in the same buffer for 1 hr at 37° C. in a humidified 5% CO2/95% air atmosphere. […] Insulin concentrations in the supernatants were measured and normalized to cell number using an insulin-specific radioimmunoassay kit (ICN Biochemicals, Irvine, Calif.) according to the manufacturer's instructions.

[3] = system: rat pancreatic islet cells; experiment: Insulin secretion by rat pancreatic islet cells (FIG. 2); assay type: cell-based; settings: basal (5 mM) or supraphysiological (8 mM) glucose
[4] = target: T1, mitochondrial calcium/sodium antiporter (Rattus norvegicus, UniProt Q6AXS0); experiment: Inhibition of mitochondrial calcium/sodium antiporter activity (NaCl-induced mitochondrial calcium efflux, calcium green 5N fluorescence); assay type: cell-based; settings: digitonin-permeabilized INS-1 cells, 20 mM NaCl
T1 sequence (Q6AXS0 1-585): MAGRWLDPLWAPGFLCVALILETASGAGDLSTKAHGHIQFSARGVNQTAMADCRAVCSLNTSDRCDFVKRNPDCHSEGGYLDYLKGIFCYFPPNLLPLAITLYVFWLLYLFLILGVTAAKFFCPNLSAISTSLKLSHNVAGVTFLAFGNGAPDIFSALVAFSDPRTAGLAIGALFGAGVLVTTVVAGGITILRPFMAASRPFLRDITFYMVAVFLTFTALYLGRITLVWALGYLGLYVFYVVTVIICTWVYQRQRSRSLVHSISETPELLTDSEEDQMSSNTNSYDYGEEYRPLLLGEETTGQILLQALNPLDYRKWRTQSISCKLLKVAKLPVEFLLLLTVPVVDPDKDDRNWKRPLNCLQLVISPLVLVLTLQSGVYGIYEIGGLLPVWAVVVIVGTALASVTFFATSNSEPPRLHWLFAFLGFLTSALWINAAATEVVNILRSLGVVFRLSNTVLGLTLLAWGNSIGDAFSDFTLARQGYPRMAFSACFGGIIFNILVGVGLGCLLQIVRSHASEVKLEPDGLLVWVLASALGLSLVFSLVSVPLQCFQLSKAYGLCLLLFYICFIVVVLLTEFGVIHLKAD
Experimental: INS-1 rat insulinoma cells (see Example 16) were harvested by trypsinization, washed and resuspended at 10×10^6 cells/ml in assay buffer (250 mM sucrose, 10 mM HEPES, 2.5 mM K2HPO4, 5 mM succinate, pH 7.4) containing 0.007% digitonin, 60 μM CaCl2 and 0.05 μM calcium green 5N (Molecular Probes, Inc., Eugene, Oreg.). After a five-minute calcium loading incubation, ruthenium red (1 μM; Sigma, St. Louis, Mo.) was added to block further calcium uptake by mitochondria. Cell suspensions were dispensed into 96-well plates (100 μl per well, 1×10^6 cells per well) and candidate agents (i.e., candidate mitochondrial calcium/sodium antiporter inhibitors) were added to some sets of triplicate wells at concentrations of 1, 10 or 100 μM, while other sets of wells provided appropriate control conditions (e.g., buffer and vehicle controls). Baseline fluorescence measurements were made using a multiwell plate fluorimeter (F-MAX™, Molecular Devices Corp., Sunnyvale, Calif.; or PolarStar™, BMG Labtechnologies, Inc., Durham, N.C.) according to the manufacturer's instructions. Calcium efflux from mitochondria was then induced by adding NaCl to all wells to achieve a final concentration of 20 mM, and the rate of change in fluorescence in each well was monitored […] for two minutes and quantified using software included with the plate reader.

C57BLKs-db/db mice = experiment: Glucose tolerance in mutant db/db mice after oral administration; assay type: in vivo, mouse; settings: 100 mg/kg orally one hour before 1 gm glucose/kg i.p.; relative to vehicle control; p<0.05
Description: This Example illustrates the effects of a representative compound on glucose tolerance in an established animal model of type II diabetes mellitus, the db/db mutant mouse. As a brief background, the recessive db mutation has been localized to murine chromosome 4, and homozygous recessive (db/db) individuals are characterized by, inter alia, obesity, hyperphagia, transient increases in plasma insulin concentrations, hyperglycemia, abnormal immune and renal functions, diabetic neuropathy and myocardial disease (see, e.g., Hummel et al., 1966 Science 153:1127; Herberg et al., 1977 Metabolism 26:59; Leiter et al., 1981 Metabolism 30:554; Guenet et al., 1982 Mouse News Letter 67:30; Guenet et al., 1984 Mouse News Letter 70:95; Bray et al., 1971 Physiol. Rev. 51:598; Bailey et al., 1989 J. Endocrinol. 123:19-24; Bray et al., 1979 Physiol. Rev. 59:719; Sima et al., 1979 Lab. Invest. 40:627; Sima et al., 1978 Acta Nettropathol. […]
16o (dissolved in vehicle: 10% (v/v) EtOH, 10% (v/v) polyethylene glycol-400, 30% (v/v) propylene glycol, 50% (v/v) H2O) was administered orally at a dosage of 100 mg/kg body weight to eight-week old mutant C57BLKs-db/db mice (Harlan Bioproducts for Science, Inc., Indianapolis, Ind.). […] Glucose concentrations in each blood sample were determined using OneTouch® glucose test strips (LifeScan, Inc., Milpitas, Calif.) according to the manufacturer's instructions. […]

[5] = Table 3, more preferred compounds, read-out: IC50 ≦ 1 μM
[6] = Table 2, preferred compounds, read-out: IC50 ≦ 10 μM

IC50 [4, 5] [µM]	IC50 [4, 6] [µM]	SMILES	also measured
		O=C1CSC(c2ccccc2Cl)c2cc(Cl)ccc2N1 (stereo not drawn) [CGP37157, 7-Chloro-5-(2-chlorophenyl)-1,5-dihydro-4,1-benzothiazepin-2(3H)-one]	stimulated islet GSIS relative to GSIS detected with 8 mM glucose [1]: 222 (±48) %; glucose stimulated insulin secretion by INS-1 cells [2]: enhanced glucose stimulated insulin secretion; glucose stimulated insulin secretion on rat pancreatic islet cells [3]: enhanced glucose stimulated insulin secretion
≤ 1		COc1cc(C(=O)NCCSC(c2cc(Cl)ccc2N)C2CCCCC2)cc(OC)c1OC (stereo not drawn) [Compound 16o]	peak blood glucose levels after the glucose bolus (C57BLKs-db/db mice): lower peak blood glucose levels; return of blood glucose to baseline (C57BLKs-db/db mice): returned to a lower baseline more rapidly
		O=[N+]([O-])c1ccccc1C(CNCCc1ccccc1)c1cccc(Cl)c1 (stereo not drawn) [Compound 27b]	IC50 ([4]; IC50 ≦ 1 μM, Table 3, more preferred compounds): ≤ 1 µM; IC50 ([4]; IC50 ≦ 10 μM, Table 2, preferred compounds): ≤ 10 µM
	≤ 10	COC(=O)CN(C)CC(c1cccc(Cl)c1)c1ccccc1[N+](=O)[O-] (stereo not drawn) [Compound 28a]	
	≤ 10	CNCCSCC(c1cc(Cl)ccc1N)c1ccccc1F (stereo not drawn) [Compound 35f]	
	≤ 10	Nc1ccc(Br)cc1C(CSCc1nc2ccccc2[nH]1)c1ccccc1F (stereo not drawn) [Compound 37a]	
	≤ 10	Cc1noc(C[S+]([O-])CC(c2cc(Cl)ccc2N)c2ccccc2Cl)n1 (stereo not drawn) [Compound 38a]	
≤ 1		COc1ccc(S(=O)(=O)N2CCC(CSC(c3cc(Cl)ccc3N)C3CCCCC3)CC2)cc1OC (stereo not drawn) [Compound 40]	
	≤ 10	COc1cc(C(=O)N2CCC(CSC(c3cc(Cl)ccc3N)C3CCCCC3)CC2)cc(OC)c1OC (stereo not drawn) [Compound 41a]	
≤ 1		COc1cc(C(=O)N2CCC(CSC(c3cc(F)ccc3N)C3CCCCC3)CC2)cc(OC)c1OC (stereo not drawn) [Compound 41b]	

SMILES	IC50 [4, 5] [µM]	IC50 [4, 6] [µM]	also measured
COC(=O)CSC(c1ccccc1C)c1ccccc1NC(=O)c1ccccc1 (stereo not drawn) [Compound 34c]		≤ 10	
Nc1ccc(Cl)cc1C(c1ccccc1Cl)[S+]([O-])CC(=O)NCC(c1ccccc1)c1ccccc1 (stereo not drawn) [Compound 38c]	≤ 1	≤ 10	
